Patent US4883796A, “Oxime ethers of 2,6-dioxabicyclo(3.3.0)octanones, and compositions and methods for treatment of a cardiac disease or circulatory with them” (Heinrich Mack Nachf., priority 1987, dated 1989)

Key:
[1] = test system: isolated aorta strips; experiment: inhibition of potassium chloride-induced contractions on isolated aorta strips, rat; format: cell-based; settings: read-out: ED50, inhibition of potassium chloride-induced contractions
[2] = test system: isolated aorta strips; experiment: inhibition of potassium chloride-induced contractions on isolated aorta strips, rabbit; format: cell-based; settings: read-out: ED50, inhibition of potassium chloride-induced contractions
[3] = orientating toxicity, mice, perorally; settings: mouse, in vivo, po, read-out: dose withstood without clinical symptoms and without fatalities
[4] = test system: Isoprenaline tachycardia; experiment: Inhibition of Isoprenaline tachycardia in narcotised, despinalised rats; format: in vivo; settings: Rattus norvegicus, prophylactic
Description: Inhibition of Isoprenaline tachycardia in narcotised,
despinalised rats after prophylactic, intravenous or
intraduodenal application

[5] = test system: Lypressin-induced T-wave elevation in the ECG; experiment: Influence on the Lypressin-induced T-wave elevation in the ECG of narcotised rats; format: in vivo
Procedure: Influence on the T-wave elevation in the ECG of narcotised
rats, which was induced by intravenous bolus injection of
Lypressin. The substances were administered perorally 15
minutes and at various times before the Lypressin injection

[6] = Cardiovascular effects after intravenous administration to narcotised rats with opened thorax and artificial respiration; format: in vivo; settings: 1.0 mg/kg i.v.
Description: |Cardiovascular effects of the compound of example 3 after intravenous |administration to narcotised rats (Pentobarbital) with opened thorax and |artificial respiration.

[7] = Cardiovascular effects after i.d. administration to narcotised rats with opened thorax and artificial respiration; format: in vivo; settings: 30 mg/kg i.d.
Description: |Cardiovascular effects of example 3 after i.d. administration to |narcotised rats (Pentobarbital) with opened thorax and artificial |respiration.

[8] = Influence on systolic arterial pressure and heart rate of conscious normotensive beagle dogs, perorally; format: in vivo; settings: 5.0 mg/kg perorally; for HR (heart rate): 0 h value 95 ± 8; for SAP (systolic arterial pressure): 0 h value 137 ± 7
Procedure: Influence on the systolic arterial pressure (SAP) and the heart rate
(HR) of concious normotensive beagle dogs. Substance was administered

[9] = Reduction of the arterial mean pressure in narcotised rabbits, i.d.; format: in vivo; settings: Oryctolagus cuniculus, intraduodenal, read-out: ED30 (mmHg), reduction of the arterial mean pressure
Procedure: Reduction of the arterial mean pressure in narcotised rabbits.
The substance was administered i.d.

SMILES: CC(C)NCC(O)CON=C1COC2C(O[N+](=O)[O-])COC12 (stereo not drawn) [Example 2, 4-(2-Hydroxy-3-isopropylamino-propyl)-oximino-2,6-dioxabicyclo[3.3.0]octan-8-exo-ol-nitrate]
- IC50 [1]: 472 µM
- IC50 [2]: 4000 µM

SMILES: CC(C)(C)NCC(O)CON=C1CO[C@H]2[C@@H]1OC[C@H]2O[N+](=O)[O-] (stereo partly drawn) [Example 3, 4-(3-tert.-Butylamino-2-hydroxy-propyl)-oximino-2,6-dioxabicyclo[3.3.0]octan-8-endo-ol-nitrate]
- NOAEL [3]: 500 mg/kg
- ED50 ([4]; iv): 4.6 mg/kg
- ED50 ([4]; i.d.): 74.6 mg/kg
- ED50 ([5]; Rattus norvegicus, po, 0.25 h, perorally 15 minutes before Lypressin): 50.8 mg/kg
- Length of action at ED50-Dose ([5]; perorally): 240 min
- BAF, changes [6]: -34 ± 5 mL/min
- BAF, length of action [6]: 109 min
- BAF, maximum efficacy [6]: 1.3 ± 0.3 min
- CO, changes [6]: -0.09 ± 0.02 L/min
- CO, length of action [6]: 113 ± 21 min
- CO, maximum efficacy [6]: 5 ± 2 min
- HR changes [6]: -13 ± 10 beats/min
- HR, length of action [6]: > 114 min
- HR, maximum efficacy [6]: 7 ± 3 min
- LV dp/dt, changes [6]: -811 ± 116 mmHg/s
- LV dp/dt, length of action [6]: 107 ± 12 min
- LV dp/dt, maximum efficacy [6]: 6.8 ± 5 min
- LVEDP, changes [6]: 0.7 ± 0.7 mmHg
- LVEDP, length of action [6]: 51 ± 28 min
- LVEDP, maximum efficacy [6]: 9.3 ± 8 min
- LVP, changes [6]: -38 ± 2 mmHg
- LVP, length of action [6]: 103 ± 28 min
- LVP, maximum efficacy [6]: 1.7 ± 0.4 min
- MAP, changes [6]: -36 ± 20 mmHg
- MAP, length of action [6]: 111 ± 15 min
- MAP, maximum efficacy [6]: 1.2 ± 0.0 min
- PAP, changes [6]: -5 ± 2 mmHg
- PAP, length of action [6]: 50 ± 18 min
- PAP, maximum efficacy [6]: 3.0 ± 0.1 min
- SV, changes [6]: +0.3 ± 0.5 ml/min
- SV, length of action [6]: 31 ± 24 min
- SV, maximum efficacy [6]: 2 ± 1 min
- TPVR, changes [6]: -43 ± 4 mmHg/ml
- TPVR, length of action [6]: 13 ± 8 min
- TPVR, maximum efficacy [6]: 1.0 ± 1.0 min
- CO (cardiac minute volume), efficacy of the substance ([6]; previous value 0.83 ± 0.04): 0.74 ± 0.08 L/min
- LVEDP (left ventricular end diastolic pressure), efficacy of the substance ([6]; previous value 3.8 ± 1.0): 3.1 ± 1.0 mmHg
- SV (cardiac output), efficacy of the substance ([6]; previous value 6.0 ± 0.4): 6.3 ± 0.6 mL/min
- PAP (blood pressure in the A. pulmonalis), efficacy of the substance ([6]; previous value 22 ± 3): 17 ± 2 mmHg
- BAF (blood flow in the A femoralis), efficacy of the substance ([6]; previous value 73 ± 16): 40 ± 11 mL/min
- MAP (mean arterial blood pressure), efficacy of the substance ([6]; previous value 117 ± 5): 81 ± 5 mmHg
- LVP (left ventricular blood pressure), efficacy of the substance ([6]; previous value 130 ± 12): 92 ± 12 mmHg
- HR (cardiac frequency), efficacy of the substance ([6]; previous value 140 ± 8): 127 ± 4 beats/min
- TPVR (total peripheral vascular resistence), efficacy of the substance ([6]; previous value 142 ± 9): 99 ± 6 mmHg/ml
- LV dp/dt (maximum left ventricular pressure increase rate), efficacy of the substance ([6]; previous value 2558 ± 141): 1747 ± 84 mmHg/s
- BAF, changes [7]: -23 ± 5 mL/min
- BAF, length of action [7]: > 167 min
- BAF, maximum efficacy [7]: 42 ± 8 min
- CO, changes [7]: -0.09 ± 0.02 L/min
- CO, length of action [7]: > 167 min
- CO, maximum efficacy [7]: 62 ± 8 min
- HR changes [7]: -23 ± 4 beats/min
- HR, length of action [7]: > 167 min
- HR, maximum efficacy [7]: 78 ± 44 min
- LV dp/dt, changes [7]: -879 ± 90 mmHg/s
- LV dp/dt, length of action [7]: > 132 min
- LV dp/dt, maximum efficacy [7]: 76 ± 10 min
- LVEDP, changes [7]: -2.3 ± 0.9 mmHg
- LVEDP, length of action [7]: 77 ± 8 min
- LVEDP, maximum efficacy [7]: 38 ± 27 min
- LVP, changes [7]: -38 ± 11 mmHg
- LVP, length of action [7]: > 153 min
- LVP, maximum efficacy [7]: 65 ± 17 min
- MAP, changes [7]: -25 ± 4 mmHg
- MAP, length of action [7]: > 167 min
- MAP, maximum efficacy [7]: 58 ± 12 min
- PAP, changes [7]: -4.3 ± 5 mmHg
- PAP, length of action [7]: 111 ± 16 min
- PAP, maximum efficacy [7]: 33 ± 11 min
- SV, changes [7]: +0.5 ± 0.07 ml/min
- SV, length of action [7]: > 167 min
- SV, maximum efficacy [7]: 33 ± 3 min
- TPVR, changes [7]: -23 ± 3 mmHg/ml
- TPVR, length of action [7]: > 136 min
- TPVR, maximum efficacy [7]: 39 ± 5 min
- CO (cardiac minute volume), efficacy of the substance ([7]; previous value 0.75 ± 0.03): 0.66 ± 0.05 L/min
- LVEDP (left ventricular end diastolic pressure), efficacy of the substance ([7]; previous value 3.8 ± 1): 1.5 ± 2 mmHg
- SV (cardiac output), efficacy of the substance ([7]; previous value 5.3 ± 0.4): 5.8 ± 0.3 mL/min
- PAP (blood pressure in the A. pulmonalis), efficacy of the substance ([7]; previous value 22.8 ± 6): 18.5 ± 7 mmHg
- BAF (blood flow in the A femoralis), efficacy of the substance ([7]; previous value 70 ± 4): 47 ± 23 mL/min
- MAP (mean arterial blood pressure), efficacy of the substance ([7]; previous value 116 ± 7): 91 ± 12 mmHg
- LVP (left ventricular blood pressure), efficacy of the substance ([7]; previous value 133 ± 9): 95 ± 10 mmHg
- HR (cardiac frequency), efficacy of the substance ([7]; previous value 142 ± 5): 119 ± 7 beats/min
- TPVR (total peripheral vascular resistence), efficacy of the substance ([7]; previous value 155 ± 8): 132 ± 10 mmHg/ml
- LV dp/dt (maximum left ventricular pressure increase rate), efficacy of the substance ([7]; previous value 2345 ± 100): 1466 ± 189 mmHg/s
- HR changes ([8]; 0.5 h): -13 ± 2 Schl/M
- SAP changes ([8]; 0.5 h): -28 ± 6 mmHg
- HR (heart rate) ([8]; 0.5 h): 82 ± 7 Schl/M
- SAP (systolic arterial pressure) ([8]; 0.5 h): 109 ± 4 mmHg
- HR changes ([8]; 1 h): -20 ± 5 Schl/M
- SAP changes ([8]; 1 h): -31 ± 5 mmHg
- HR (heart rate) ([8]; 1 h): 75 ± 5 Schl/M
- SAP (systolic arterial pressure) ([8]; 1 h): 106 ± 2 mmHg
- HR changes ([8]; 2 h): -24 ± 6 Schl/M
- SAP changes ([8]; 2 h): -21 ± 2 mmHg
- HR (heart rate) ([8]; 2 h): 70 ± 6 Schl/M
- SAP (systolic arterial pressure) ([8]; 2 h): 116 ± 5 mmHg
- HR changes ([8]; 3 h): -19 ± 5 Schl/M
- SAP changes ([8]; 3 h): -15 ± 4 mmHg
- HR (heart rate) ([8]; 3 h): 76 ± 4 Schl/M
- SAP (systolic arterial pressure) ([8]; 3 h): 122 ± 4 mmHg
- HR changes ([8]; 4 h): -14 ± 4 Schl/M
- SAP changes ([8]; 4 h): -9 ± 3 mmHg
- HR (heart rate) ([8]; 4 h): 81 ± 4 Schl/M
- SAP (systolic arterial pressure) ([8]; 4 h): 128 ± 7 mmHg
- ED (30 mmHg) [9]: 22.8 mg/kg
